Experimental data from publication PMC6261308 (Advanced functional materials, 2018).

Assay: Acute toxicity: hemograms and serum biochemistry
Type: in vivo, Balb/c mice
Conditions: 2.5 mg kg^−1 of drug content three times a week

COc1cccc2c1C(=O)c1c(O)c3c(c(O)c1C2=O)C[C@@](O)(/C(CO)=N/NC(=O)CCCCCN1C(=O)C=CC1=O)C[C@@H]3O[C@H]1C[C@H](N)[C@H](O)[C@H](C)O1 [aldox, aldoxorubicin]
serum creatine kinase (CK) level: increased CK level
